Data reported in publication PMC11784026, “Phase 1 study of the safety, tolerability, and pharmacokinetics of a synthetic macrocyclic peptide antibiotic (BRII-693) in healthy adult participants” (Antimicrobial Agents and Chemotherapy, 2024).
Read-outs that look alike come from different tables or passages of the source. Where a SMILES comes first, the peptide text is derived from it. Bridges are numbered along the chain shown (N, C = ends). [ ]: non-standard residue; d: D form. The star is where a group is joined. X1 = O=C(c1ccc(Cl)cc1Cl)*; Dab = NCC[C@H](N)C(=O)O; Abu = CC[C@H](N)C(=O)O; Dap = NC[C@H](N)C(=O)O

Protocol: During the MAD phase of the study, repeat dosing of 100, 150, and 200 mg of BRII-693 was evaluated in sequential cohorts (cohorts 8–10) composed of eight participants each (six active; two placebo). Participants first received a single dose of BRII-693 or placebo as a 1-hour IV infusion on day 1; and then 48 hours later on day 3 through day 9, participants received BRII-693 or placebo every 6 hours (q6h) for 7 days, with the last dose in the morning on day 9. Participants were discharged on day 11. In the remaining two MAD cohorts (cohorts 11 and 12), repeat dosing of 150 mg of BRII-693 q6h for 14 days was evaluated in non-Chinese and Chinese (first and second generation) participants. Each cohort comprises 12 participants (10 active and 2 placebo). The last dose was in the morning on day 14, and participants were discharged on day 17.
For the 7-day MAD cohorts 8–10, blood samples were collected (i) on day 1 before dosing and at 0.5, 1, 1.25, 1.5, 2, 4, 6, 8, 12, 24, 36, and 48 hours following the start of dosing infusion; (ii) on day 3 prior to the morning dose and at 0.5, 1, 1.25, 1.5, 2, 4, and 6 hours after the start of the first dosing infusion; (iii) on day 9 before dosing and at 0.5, 1, 1.25, 1.5, 2, 4, 6, 8, 12, 24, 36, and 48 hours following the start of the last dosing infusion in the morning. Urine samples were collected before dosing and at the time intervals of 0–4, 4–8, 8–12, 12–24, 24–36, and 36–48 hours after the start of dosing infusion on days 1 and 9.
For the 14-day MAD cohorts 11 and 12, blood samples were collected (i) on day 1 prior to and at 0.5, 1, 1.25, 1.5, 2, 4, and 6 hours after the start of the first dosing infusion and (ii) on day 14 before dosing and at 0.5, 1, 1.25, 1.5, 2, 4, 6, 8, 12, 24, 36, 48, 60, and 72 hours following the start of the last dosing infusion in the morning. Urine samples were collected before dosing and at the time intervals of 0–4, 4–8, 8–12, 12–24, 24–36, 36–48, and 48–72 hours after the start of dosing infusion on Day 14.
All blood samples were collected into EDTA-containing vials, immediately placed on ice, and centrifuged at 3,000× g for approximately 10 minutes at 4°C. Supernatant plasma was transferred to two pre-chilled cryopreservation vials (at least 1.0 mL per vial) and stored at −80°C until shipped to the analytical laboratory. Urine samples collected for each time interval were refrigerated, aliquoted, and stored at −80°C until shipped to the analytical laboratory. Plasma and urine samples were analyzed for BRII-693 concentrations using validated high-performance liquid chromatography with detection by mass spectrometry method (BioAgilytix, San Diego, CA). The assay range was 50.0–50,000 ng/mL in both plasma and urine.
Area under the concentration-time curve (AUC) from time zero to the time of the last quantifiable concentration (AUC0–last), AUC from time zero to infinity (AUC0–inf), AUC within a dosing interval of 6 hours (AUC0–6h), maximum observed concentration (Cmax), time to reach maximum concentration (Tmax), apparent terminal half-life (t1/2), total clearance (CL), volume of distribution during terminal phase (Vz), and accumulation ratio based on AUC (ARAUC) were determined for BRII-693 in plasma. Urine parameters included amount and percentage of dose recovered in urine as unchanged drug over each collection interval and cumulatively and renal clearance (CLR). PK parameters were determined using noncompartmental methods in Phoenix WinNonlin (Certara, Version 8.3).

Compound: CC[C@@H]1NC(=O)[C@@H](CC(C)C)NC(=O)[C@H](CCN)NC(=O)[C@@H](NC(=O)[C@H](CN)NC(=O)[C@@H](NC(=O)[C@H](CCN)NC(=O)c2ccc(Cl)cc2Cl)[C@@H](C)O)CCNC(=O)[C@H]([C@@H](C)O)NC(=O)[C@H](CCN)NC(=O)[C@H](CCN)NC1=O [BRII-693] (X1-[Dab]T[Dap][Dab][Dab][dL][Abu][Dab][Dab]T; lactam 4-C; N-terminus assumed)
- CLR (Last q6h dose (day 9), 7-day MAD 100 mg q6h × 7, renal clearance, n = 6, arithmetic mean ± SD): 1.40 ± 0.60 L/h
- fe0–48h (Last q6h dose (day 9), 7-day MAD 100 mg q6h × 7, urinary recovery over 48 h, n = 6, arithmetic mean ± SD): 66.5 ± 18.0%
- CLR (Last q6h dose (day 9), 7-day MAD 150 mg q6h × 7, renal clearance, n = 5, arithmetic mean ± SD): 1.60 ± 0.60 L/h
- fe0–48h (Last q6h dose (day 9), 7-day MAD 150 mg q6h × 7, urinary recovery over 48 h, n = 5, arithmetic mean ± SD): 57.2 ± 19.2%
- CLR (Last q6h dose (day 9), 7-day MAD 200 mg q6h × 7, renal clearance, n = 5, arithmetic mean ± SD): 1.41 ± 0.23 L/h
- fe0–48h (Last q6h dose (day 9), 7-day MAD 200 mg q6h × 7, urinary recovery over 48 h, n = 5, arithmetic mean ± SD): 74.3 ± 30.3%
- CLR (Last q6h dose (day 14), 14-day MAD 150 mg q6h × 14, Chinese, renal clearance, n = 6, arithmetic mean ± SD): 1.67 ± 0.43 L/h
- fe0–48h (Last q6h dose (day 14), 14-day MAD 150 mg q6h × 14, Chinese, urinary recovery over 48 h, n = 6, arithmetic mean ± SD): 70.9 ± 22.0%
- CLR (Last q6h dose (day 14), 14-day MAD 150 mg q6h × 14, non-Chinese, renal clearance, n = 10, arithmetic mean ± SD): 1.91 ± 0.79 L/h
- fe0–48h (Last q6h dose (day 14), 14-day MAD 150 mg q6h × 14, non-Chinese, urinary recovery over 48 h, n = 10, arithmetic mean ± SD): 74.1 ± 25.6%
- Urinary recovery compared with polymyxin B (comparison with literature polymyxin B data (ref 11)): higher urinary recovery than polymyxin B
